pIC50, pKi: −log10 of the molar value.
Experiments:
2C9 = 2C9 (Homo sapiens, UniProt P11712); conditions: cited from earlier work; for pKi: read-out: 2C9 Published data, Ki, published
2C9-FGloop K206E = 2C9-FGloop K206E (Homo sapiens, UniProt P11712, C216Y/I215V/I222L/I223L/K206E/P221A/S220P); experiment: biochemical
2C9trunc = 2C9trunc (Homo sapiens, UniProt P11712); experiment: Inhibition assay with substrates/inhibitors of 2C9
2C19 = 2C19 (Homo sapiens, UniProt P33261); conditions: protein 2C19 (published), Table 17; cited from earlier work
2C19, sequence (P33261 whole entry): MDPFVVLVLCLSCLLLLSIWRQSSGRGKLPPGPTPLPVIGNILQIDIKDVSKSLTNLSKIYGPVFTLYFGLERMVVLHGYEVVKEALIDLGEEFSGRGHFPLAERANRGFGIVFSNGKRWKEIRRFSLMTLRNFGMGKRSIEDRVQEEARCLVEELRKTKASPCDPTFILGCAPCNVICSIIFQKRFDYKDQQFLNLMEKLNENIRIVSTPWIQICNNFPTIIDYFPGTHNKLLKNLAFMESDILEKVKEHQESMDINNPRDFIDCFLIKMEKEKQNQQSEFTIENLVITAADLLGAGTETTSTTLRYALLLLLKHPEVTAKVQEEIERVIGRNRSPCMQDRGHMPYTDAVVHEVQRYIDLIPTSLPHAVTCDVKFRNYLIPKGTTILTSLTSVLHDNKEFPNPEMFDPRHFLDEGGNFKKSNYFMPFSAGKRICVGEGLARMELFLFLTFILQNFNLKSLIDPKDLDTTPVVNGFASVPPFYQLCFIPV

1155 = biological target: T1, 1155 (Homo sapiens, UniProt P11712, C216Y/I215V/I222L/I223L/K206E/P221A/S220P); experiment: Inhibition assay with substrates/inhibitors of 2C19 and 2C9 (Table 17); assay type: biochemical; conditions: protein 1155, Table 17
T1 construct: is residue 30 (all numbering is in relation to the full length protein), and the last residue is residue 490; made in house; host or cells: E. coli XL1 Blue
T1 sequence (P11712 30-490 K206E/I215V/C216Y/S220P/P221A/I222L/I223L): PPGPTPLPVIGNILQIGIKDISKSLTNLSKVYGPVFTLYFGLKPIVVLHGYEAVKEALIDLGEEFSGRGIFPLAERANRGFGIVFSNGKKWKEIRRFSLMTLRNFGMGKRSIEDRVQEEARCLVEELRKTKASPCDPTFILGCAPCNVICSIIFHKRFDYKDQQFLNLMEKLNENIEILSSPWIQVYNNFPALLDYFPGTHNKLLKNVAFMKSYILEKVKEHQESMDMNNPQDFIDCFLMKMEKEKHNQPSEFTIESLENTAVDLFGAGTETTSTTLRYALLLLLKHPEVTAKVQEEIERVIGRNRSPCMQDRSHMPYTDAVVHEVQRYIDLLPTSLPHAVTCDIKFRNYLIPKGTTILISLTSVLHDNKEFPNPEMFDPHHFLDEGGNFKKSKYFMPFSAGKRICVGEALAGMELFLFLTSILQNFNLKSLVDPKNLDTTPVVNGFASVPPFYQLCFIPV

1600 = biological target: T2, 1600 (Homo sapiens, UniProt P11712, C216Y/E288V/F295L/I215V/I222L/I223L/I331V/I99H/K206E/L362I/N289I/P221A/S220P/S286N/V292A); experiment: Inhibition assay on 2C9-2C19 chimera (Table 17); assay type: biochemical; conditions: chimera 1600, Table 17
T2 construct: is residue 30 (all numbering is in relation to the full length protein), and the last residue is residue 490; made in house; host or cells: E. coli XL1 Blue
T2 sequence (P11712 30-490 I99H/K206E/I215V/C216Y/S220P/P221A/I222L/I223L/S286N/E288V/N289I/V292A/F295L/I331V/L362I): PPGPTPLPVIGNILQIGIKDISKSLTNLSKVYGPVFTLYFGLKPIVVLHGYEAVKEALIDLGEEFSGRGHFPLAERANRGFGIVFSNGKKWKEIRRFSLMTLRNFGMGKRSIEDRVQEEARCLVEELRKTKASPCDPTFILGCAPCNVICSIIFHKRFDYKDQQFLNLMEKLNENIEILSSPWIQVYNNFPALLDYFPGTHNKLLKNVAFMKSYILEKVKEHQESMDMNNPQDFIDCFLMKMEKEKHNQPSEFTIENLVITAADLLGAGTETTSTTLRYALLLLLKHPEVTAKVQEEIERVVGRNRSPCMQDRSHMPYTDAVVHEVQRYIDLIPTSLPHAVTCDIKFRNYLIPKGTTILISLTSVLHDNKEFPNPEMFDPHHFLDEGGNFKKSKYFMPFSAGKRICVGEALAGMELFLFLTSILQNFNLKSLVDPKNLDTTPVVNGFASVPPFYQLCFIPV

1632 = biological target: T3, 1632 (Homo sapiens, UniProt P11712, C216Y/E288V/F295L/I215V/I222L/I223L/I99H/K206E/N289I/P221A/S220P/S286N/V292A); experiment: Inhibition assay on 2C9-2C19 chimera (Table 17); assay type: biochemical; conditions: chimera 1632, Table 17
T3 construct: is residue 30 (all numbering is in relation to the full length protein), and the last residue is residue 490; made in house; host or cells: E. coli XL1 Blue
T3 sequence (P11712 30-490 I99H/K206E/I215V/C216Y/S220P/P221A/I222L/I223L/S286N/E288V/N289I/V292A/F295L): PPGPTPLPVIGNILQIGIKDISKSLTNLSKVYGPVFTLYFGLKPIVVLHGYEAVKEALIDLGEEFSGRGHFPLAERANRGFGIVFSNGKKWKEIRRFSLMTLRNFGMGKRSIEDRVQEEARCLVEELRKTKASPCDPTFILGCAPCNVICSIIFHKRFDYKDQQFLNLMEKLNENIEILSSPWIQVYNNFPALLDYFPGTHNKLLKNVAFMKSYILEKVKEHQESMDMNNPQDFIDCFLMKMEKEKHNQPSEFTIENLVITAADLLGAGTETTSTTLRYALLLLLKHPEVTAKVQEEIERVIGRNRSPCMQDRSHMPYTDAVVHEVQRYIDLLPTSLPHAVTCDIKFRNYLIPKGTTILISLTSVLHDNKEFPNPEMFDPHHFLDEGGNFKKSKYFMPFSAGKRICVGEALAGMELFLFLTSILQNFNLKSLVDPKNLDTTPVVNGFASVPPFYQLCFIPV

1661 = biological target: T4, 1661 (Homo sapiens, UniProt P11712, C216Y/I215V/I222L/I223L/I99H/K206E/N289I/P221A/S220P/S286N); experiment: Inhibition assay on 2C9-2C19 chimera (Table 17); assay type: biochemical; conditions: chimera 1661, Table 17
T4 construct: is residue 30 (all numbering is in relation to the full length protein), and the last residue is residue 490; made in house; host or cells: E. coli XL1 Blue
T4 sequence (P11712 30-490 I99H/K206E/I215V/C216Y/S220P/P221A/I222L/I223L/S286N/N289I): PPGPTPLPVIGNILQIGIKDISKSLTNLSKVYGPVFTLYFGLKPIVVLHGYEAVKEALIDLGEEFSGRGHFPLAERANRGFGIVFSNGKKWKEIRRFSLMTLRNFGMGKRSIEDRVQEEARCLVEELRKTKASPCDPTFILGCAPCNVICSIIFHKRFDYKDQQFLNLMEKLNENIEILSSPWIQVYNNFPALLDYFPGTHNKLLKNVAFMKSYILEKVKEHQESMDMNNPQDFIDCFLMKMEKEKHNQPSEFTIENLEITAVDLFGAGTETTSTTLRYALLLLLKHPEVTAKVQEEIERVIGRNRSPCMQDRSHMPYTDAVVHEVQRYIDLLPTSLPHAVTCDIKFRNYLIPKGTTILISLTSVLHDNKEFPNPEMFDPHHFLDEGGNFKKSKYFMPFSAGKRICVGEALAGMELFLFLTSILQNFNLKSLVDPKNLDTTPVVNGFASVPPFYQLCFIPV

2C9, sequence (P11712 whole entry): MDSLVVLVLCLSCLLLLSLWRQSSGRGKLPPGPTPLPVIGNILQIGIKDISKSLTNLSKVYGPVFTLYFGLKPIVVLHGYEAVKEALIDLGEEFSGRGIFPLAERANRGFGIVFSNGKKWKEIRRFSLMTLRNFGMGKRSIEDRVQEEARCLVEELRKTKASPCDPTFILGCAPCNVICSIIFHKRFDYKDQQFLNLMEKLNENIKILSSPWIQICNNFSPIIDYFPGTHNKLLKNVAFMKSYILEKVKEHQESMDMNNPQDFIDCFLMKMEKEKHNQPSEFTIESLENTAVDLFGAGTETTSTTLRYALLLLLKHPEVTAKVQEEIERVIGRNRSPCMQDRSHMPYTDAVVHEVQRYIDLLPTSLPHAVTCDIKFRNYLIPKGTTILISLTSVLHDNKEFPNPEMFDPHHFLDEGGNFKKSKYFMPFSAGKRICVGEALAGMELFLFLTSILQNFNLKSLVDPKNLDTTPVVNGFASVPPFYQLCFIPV
2C9trunc, sequence (P11712 30-490): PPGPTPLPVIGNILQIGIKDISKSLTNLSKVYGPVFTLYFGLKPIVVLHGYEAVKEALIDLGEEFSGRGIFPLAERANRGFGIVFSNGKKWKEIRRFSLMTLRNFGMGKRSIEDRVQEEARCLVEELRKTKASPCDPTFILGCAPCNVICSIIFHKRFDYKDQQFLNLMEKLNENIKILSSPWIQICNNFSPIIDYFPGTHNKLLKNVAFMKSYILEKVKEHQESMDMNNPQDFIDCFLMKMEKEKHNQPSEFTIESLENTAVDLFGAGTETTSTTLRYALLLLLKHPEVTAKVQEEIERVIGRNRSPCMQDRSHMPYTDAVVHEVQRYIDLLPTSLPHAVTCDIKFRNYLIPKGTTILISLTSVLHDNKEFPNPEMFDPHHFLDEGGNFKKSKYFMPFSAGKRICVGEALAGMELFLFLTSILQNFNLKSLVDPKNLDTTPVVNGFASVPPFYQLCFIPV
2C9-FGloop K206E, sequence (P11712 30-490 K206E/I215V/C216Y/S220P/P221A/I222L/I223L): as the sequence (P11712 30-490 K206E/I215V/C216Y/S220P/P221A/I222L/I223L) above

Row | pIC50 (2C9-FGloop K206E) | pKi (2C9-FGloop K206E) | pIC50 (2C9trunc) | pKi (2C9trunc) | Structure (SMILES) | Km (2C9) | pKi (2C19) | pKi (2C9) | pKi 1155 | pKi 1600 | pKi 1632 | pKi 1661
1 | 5.11 | 5.48 | 5.32 | 5.54 | CC(C)(c1ccc(O)cc1)c1ccc(O)cc1 [Bisphenol A] | 4 µM |  |  |  |  |  | 
2 | 5.68 | 5.39 | 5.82 | 5.82 | CNCCC(Oc1ccc(C(F)(F)F)cc1)c1ccccc1 (stereo not shown) [Fluoxetine] |  |  | 4.89 |  |  |  | 

More lines, now with the values behind:

Row | Structure (SMILES) | pIC50 (2C9-FGloop K206E) | pKi (2C9-FGloop K206E) | pIC50 (2C9trunc) | pKi (2C9trunc) | Km (2C9) | pKi (2C19) | pKi (2C9) | pKi 1155 | pKi 1600 | pKi 1632 | pKi 1661
3 | O=C(O)Cc1ccccc1Nc1c(Cl)cccc1Cl [Diclofenac] |  |  |  |  |  | 3.64 |  |  |  |  | 
4 | COCCCC/C(=N\OCCN)c1ccc(C(F)(F)F)cc1 [Fluvoxamine] | 6.40 | 6.07 | 6.22 | 6.15 |  |  | 5.30 to 5.70 | 6.40 | > 6.00 | 5.80 | 6.30
5 | CN1C(C(=O)Nc2ccccn2)=C(O)c2ccccc2S1(=O)=O [Piroxicam] |  |  |  |  |  | 3.88 |  | 4.52 | < 4.00 | < 4.00 | < 4.00

— US20040053383A1, “Crystals of cytochrome P450 2C9, structures thereof and their use” (ASTEX TECHNOLOGY LTD., priority 2001, published 2004)
